Experimental data published in ChEMBL document CHEMBL5634090, “Design of phenothiazine-based cationic amphiphilic derivatives incorporating arginine residues: Potential membrane-active broad-spectrum antimicrobials combating pathogenic bacteria in vitro and in vivo” (Eur J Med Chem, 2023).
Converted amounts (≈) assume the structure as drawn. “And” between values parts separate entries of the source, which are not always exact repeats. Equal values may be shown once. The source made the active and inactive calls. No cut-off for these calls is given here.

Tests used:
Escherichia coli [1] = assay: Antibacterial activity against Escherichia coli ATCC 25922 in presence of 20 umol/L Fe2+ by broth microdilution method; type: functional
Klebsiella pneumoniae [2] = assay: Inhibition of biofilm formation in Klebsiella pneumoniae ATCC 10031 at 6.25 ug/ml by crystal violet staining assay relative to control; type: functional
Klebsiella pneumoniae [3] = assay: Antibacterial activity against Klebsiella pneumoniae ATCC 10031 in presence of 2.5 mmol/L Ca2+ by broth microdilution method; type: functional
Klebsiella pneumoniae [4] = assay: Antibacterial activity against Klebsiella pneumoniae ATCC 10031 in presence of 19 umol/L Zn2+ by broth microdilution method; type: functional
Staphylococcus aureus [5] = assay: Inhibition of biofilm formation in Staphylococcus aureus ATCC 29213 at 12.5 ug/ml by crystal violet staining assay relative to control; type: functional
[6] = Cytotoxicity against mouse NCTC clone 929 cells by CCK-8 assay; type: toxicity, cell-based; conditions: NCTC clone 929 (L929) cells
Staphylococcus aureus [7] = assay: Antibacterial activity against methicillin resistant Staphylococcus aureus NCTC 10442 in presence of 140 mmol/L Na+ by broth microdilution method; type: functional
Staphylococcus aureus [8] = assay: Inhibition of biofilm formation in Staphylococcus aureus ATCC 29213 at 3.125 ug/ml by crystal violet staining assay relative to control; type: functional
Klebsiella pneumoniae [9] = assay: Antibiofilm activity against 24 hrs preformed biofilm in Klebsiella pneumoniae ATCC 10031 assessed as reduction in biofilm viability at 3.125 ug/ml relative to control; type: functional; conditions: dose 3.125 µg/ml
[10] = Selectivity index, ratio of CC50 for cytotoxicity against mouse NCTC clone 929 cells to MIC for antibacterial activity against methicillin resistant Staphylococcus aureus N315; type: toxicity, cell-based; conditions: read-out: Selectivity Index
Klebsiella pneumoniae [11] = assay: Antibiofilm activity against 24 hrs preformed biofilm in Klebsiella pneumoniae ATCC 10031 assessed as reduction in biofilm viability at 6.25 ug/ml relative to control; type: functional; conditions: dose 6.25 µg/ml
[12] = Selectivity index, ratio of CC50 for cytotoxicity against mouse NCTC clone 929 cells to MIC for antibacterial activity against Klebsiella pneumoniae ATCC 14581; type: toxicity, cell-based; conditions: read-out: Selectivity Index
Staphylococcus aureus [13] = assay: Antibacterial activity against Staphylococcus aureus ATCC 29213 in presence of 20 umol/L Fe3+ by broth microdilution method; type: functional
[14] = Hemolytic activity in rabbit erythrocytes; type: toxicity, cell-based, Oryctolagus cuniculus, Erythrocyte
Staphylococcus aureus [15] = assay: Inhibition of biofilm formation in Staphylococcus aureus ATCC 29213 by crystal violet staining assay; type: functional, organism-based; conditions: dose 0.39-12.5 µg/ml
Staphylococcus aureus [16] = assay: Antibacterial activity against Staphylococcus aureus ATCC 29213 assessed as log reduction in bacterial load at 8 times MIC measured after 2 hrs by time kill assay; type: functional
Klebsiella pneumoniae [17] = assay: Inhibition of biofilm formation in Klebsiella pneumoniae ATCC 10031 at 25 ug/ml by crystal violet staining assay relative to control; type: functional
Klebsiella pneumoniae [18] = assay: Induction of resistance development in Klebsiella pneumoniae ATCC 10031 assessed as fold increase in MIC treated over 20 serial passages by microdilution assay; type: functional
Staphylococcus aureus [19] = assay: Antibacterial activity against methicillin resistant Staphylococcus aureus NCTC 10442 in presence of 20 umol/L Fe3+ by broth microdilution method; type: functional
Staphylococcus aureus [20] = assay: Antibacterial activity against methicillin resistant Staphylococcus aureus N315 in presence of 20 umol/L Fe3+ by broth microdilution method; type: functional
[21] = Selectivity index, ratio of CC50 for cytotoxicity against HEK293 cells to MIC for antibacterial activity against Klebsiella pneumoniae ATCC 10031; type: toxicity, cell-based; conditions: human, read-out: Selectivity Index
Staphylococcus aureus [22] = assay: Antibacterial activity against methicillin resistant Staphylococcus aureus N315 in presence of 19 umol/L Zn2+ by broth microdilution method; type: functional
Klebsiella pneumoniae [23] = assay: Antibacterial activity against Klebsiella pneumoniae ATCC 14581 in presence of 19 umol/L Fe2+ by broth microdilution method; type: functional
Escherichia coli [24] = assay: Antibacterial activity against Escherichia coli ATCC 25922 in presence of 2.5 mmol/L Ca2+ by broth microdilution method; type: functional
Staphylococcus aureus [25] = assay: Antibacterial activity against methicillin resistant Staphylococcus aureus N315 in presence of 4.5 mmol/L K+ by broth microdilution method; type: functional
Klebsiella pneumoniae [26] = assay: Antibacterial activity against Klebsiella pneumoniae ATCC 10031 assessed as loss in cell viability at 8 times MIC incubated for 4 hrs by LIVE/DEAD BacLight bacterial viability assay; type: functional, organism-based; conditions: Cell membrane
[27] = Selectivity index, ratio of CC50 for cytotoxicity against mouse NCTC clone 929 cells to MIC for antibacterial activity against Klebsiella pneumoniae ATCC 10031; type: toxicity, cell-based; conditions: read-out: Selectivity Index
[28] = Selectivity index, ratio of CC50 for cytotoxicity against mouse NCTC clone 929 cells to MIC for antibacterial activity against methicillin resistant Staphylococcus aureus NCTC 10442; type: toxicity, cell-based; conditions: read-out: Selectivity Index
Escherichia coli [29] = assay: Antibacterial activity against Escherichia coli ATCC 25922 in presence of 4.5 mmol/L K+ by broth microdilution method; type: functional
Klebsiella pneumoniae [30] = assay: Antibacterial activity against Klebsiella pneumoniae ATCC 10031 in presence of 19 umol/L Fe2+ by broth microdilution method; type: functional
[31] = Cytotoxicity against HEK293 cells by CCK-8 assay; type: toxicity, cell-based; conditions: human
Staphylococcus aureus [32] = assay: Antibacterial activity against methicillin resistant Staphylococcus aureus N315 in presence of 2.5 mmol/L Ca2+ by broth microdilution method; type: functional
Pseudomonas aeruginosa [33] = assay: Antibacterial activity against Pseudomonas aeruginosa ATCC 9027 in presence of 1.00 mmol/L Mg2+ by broth microdilution method; type: functional
Klebsiella pneumoniae [34] = assay: Antibiofilm activity against 24 hrs preformed biofilm in Klebsiella pneumoniae ATCC 10031 assessed as reduction in biofilm viability at 12.5 ug/ml relative to control; type: functional; conditions: dose 12.5 µg/ml
[35] = Selectivity index, ratio of CC50 for cytotoxicity against mouse NCTC clone 929 cells to MIC for antibacterial activity against Staphylococcus aureus ATCC 29213; type: toxicity, cell-based; conditions: read-out: Selectivity Index
[36] = Cytotoxicity against HEK293 cells assessed as cell survival rate at 25 ug/ml by CCK-8 assay relative to control; type: toxicity, cell-based; conditions: human, at 25 µg/mL, read-out: Activity
[37] = Cytotoxicity against HEK293 cells assessed as cell survival rate at 50 ug/ml by CCK-8 assay relative to control; type: toxicity, cell-based; conditions: human, at 50 µg/mL, read-out: Activity
Escherichia coli [38] = assay: Antibacterial activity against Escherichia coli ATCC 25922 in presence of 19 umol/L Zn2+ by broth microdilution method; type: functional
Staphylococcus aureus [39] = assay: Antibacterial activity against Staphylococcus aureus ATCC 29213 in presence of 19 umol/L Zn2+ by broth microdilution method; type: functional
Staphylococcus aureus [40] = assay: Antibiofilm activity against 24 hrs preformed biofilm in Staphylococcus aureus ATCC 29213 assessed as reduction in biofilm viability at 12.5 ug/ml relative to control; type: functional; conditions: dose 12.5 µg/ml
Staphylococcus aureus [41] = assay: Antibacterial activity against methicillin resistant Staphylococcus aureus N315 in presence of 140 mmol/L Na+ by broth microdilution method; type: functional
Pseudomonas aeruginosa [42] = assay: Antibacterial activity against Pseudomonas aeruginosa ATCC 9027 by microbroth dilution assay; type: functional
Staphylococcus aureus [43] = assay: Antibacterial activity against Staphylococcus aureus ATCC 29213 assessed as loss in cell viability at 8 times MIC incubated for 4 hrs by LIVE/DEAD BacLight bacterial viability assay; type: functional, organism-based; conditions: Cell membrane

## CCCCCCCN1c2ccccc2Sc2ccc(OCC(=O)N[C@@H](CCCNC(=N)N)C(=O)N[C@@H](CCCNC(=N)N)C(N)=O)cc21
Escherichia coli [1]
  MIC: 3.12 µg/mL
Klebsiella pneumoniae [2]
  inhibition at 6.25 µg/mL: 90%
Klebsiella pneumoniae [3]
  MIC: 3.12 µg/mL
Klebsiella pneumoniae [4]
  MIC: 6.25 µg/mL
Staphylococcus aureus [5]
  inhibition at 12.5 µg/mL: 96.7%
[6]
  CC50: > 50 µg/mL and 73.3 µM
Staphylococcus aureus [7]
  MIC: 1.56 µg/mL
Staphylococcus aureus [8]
  inhibition at 3.125 µg/mL: 87.2%
Klebsiella pneumoniae [9]
  Activity: 34.26%
[10]
  selectivity ratio: 8
Klebsiella pneumoniae [11]
  Activity: 10.44%
[12]
  selectivity ratio: 8
Staphylococcus aureus [13]
  MIC: 1.56 µg/mL
[14]
  HC50: 281 µg/mL
Staphylococcus aureus [15]
  inhibition: Dose-Dependent Effect
Staphylococcus aureus [16]
  log(activity): >3
Klebsiella pneumoniae [17]
  inhibition at 25 µg/mL: 96.6%
Klebsiella pneumoniae [18]
  fold change (FC): < 4
Staphylococcus aureus [19]
  MIC: 1.56 µg/mL
Staphylococcus aureus [20]
  MIC: 1.56 µg/mL
[21]
  selectivity ratio: 8
Staphylococcus aureus [22]
  MIC: 1.56 µg/mL
Klebsiella pneumoniae [23]
  MIC: 3.12 µg/mL
Escherichia coli [24]
  MIC: 3.12 µg/mL
Staphylococcus aureus [25]
  MIC: 1.56 µg/mL
Klebsiella pneumoniae [26]
  Activity: Active
[27]
  selectivity ratio: 8
[28]
  selectivity ratio: 8
Escherichia coli [29]
  MIC: 3.12 µg/mL
Klebsiella pneumoniae [30]
  MIC: 6.25 µg/mL
[31]
  CC50: > 50 µg/mL and 73.3 µM
Staphylococcus aureus [32]
  MIC: 3.12 µg/mL
Pseudomonas aeruginosa [33]
  MIC: 6.25 µg/mL
Klebsiella pneumoniae [34]
  Activity: 5.88%
[35]
  selectivity ratio: 8
[36]
  viability at 25 ug/ml: 74.4%
[37]
  viability at 50 ug/ml: 56%
Escherichia coli [38]
  MIC: 3.12 µg/mL
Staphylococcus aureus [39]
  MIC: 1.56 µg/mL
Staphylococcus aureus [40]
  Activity: 9.12%
Staphylococcus aureus [41]
  MIC: 1.56 µg/mL
Pseudomonas aeruginosa [42]
  MIC: 6.25 µg/mL (≈ 9.15 µM)
Staphylococcus aureus [43]
  Activity: Active
